Results taken from patent publication US9744178B2, “Respirable agglomerates of porous carrier particles and micronized drug” (Novartis AG, priority 2013, dated 2017).

Columns and labels:
[1] = Delivered dose uniformity from Concept1 dry powder inhaler; format: physicochemical; settings: each drug in respirable agglomerates Lot 11015A-7-6, size 3 hypromellose capsules, Concept1, 60 L/min, 2 L, on filter, RP-HPLC
Protocol: “Emitted Dose” or “ED” as used herein refers to an indication of the delivery of dry powder from an inhaler device after an actuation or dispersion event from a powder unit. ED is defined as the ratio of the dose delivered by an inhaler device to the nominal or metered dose. The ED is an experimentally determined parameter, and may be determined using an in vitro device set up which mimics patient dosing. It is sometimes also referred to as the Delivered Dose (DD). The ED is determined using a drug specific method such as high pressure liquid chromatography.
The bulk powder was filled into size 3 hypromellose capsules. The capsules were then individually filled into a Concept1 dry powder Inhaler (as described herein). The Concept1 Inhaler is a low resistance, capsule-based dry powder Inhaler. The device was emptied at a flow rate of 60 L/min and an inhaled volume of 2 L onto a filter. The mass of each Individual drug on the filter was quantitated by RP-HPLC. The total mass of powder on the filter was also determined gravimetrically.

[2] = Particle size (x50, x90) of micronized drug crystals; format: physicochemical; settings: micronized drug crystals used in the respirable agglomerates
Protocol: “Mass median diameter” or “MMD” or “×50” as used herein means the median diameter of a plurality of particles, typically in a polydisperse particle population, i.e., consisting of a range of particle sizes. MMD values as reported herein are determined by laser diffraction (Sympatec Helos, Clausthal-Zellerfeld, Germany), unless the context indicates otherwise.
An MMD or an ×50 (particle size distribution wherein 50% of the particles are sized smaller) of the micronized active ingredients should be less than about 3 micron (μm), preferably less than about 2 μm, or 1 μm. In embodiments of the invention, an ×50 is about 0.1-3 μm. An ×90 (particle size distribution wherein 90% of the particles are sized smaller) should be less than 7 μm, preferably less than 5 μm, or 3 μm.

[3] = Physical form of indacaterol acetate by X-ray powder diffraction; format: physicochemical; settings: for Physical stability of the salt form in water: suspended in water / aqueous feedstock to be spray-dried, acetate
Protocol: In the process of the present invention, an ordered mixture of micronized indacaterol acetate crystals and small porous particles are created by suspending the particles in a liquid perfluorocarbon, and then removing the liquid in a drying process. The physical form of the indacaterol acetate drug substance can be determined by X-ray powder diffraction (XRPD).
The pattern is dominated by the characteristic phospholipid peak at 20=21°. […] Peaks characteristic of indacaterol free base are not present.

β2-adrenoceptor = β2-adrenoceptor (Homo sapiens, UniProt P07550); settings: cited from earlier work
Sequence of β2-adrenoceptor (P07550 whole entry, species assumed): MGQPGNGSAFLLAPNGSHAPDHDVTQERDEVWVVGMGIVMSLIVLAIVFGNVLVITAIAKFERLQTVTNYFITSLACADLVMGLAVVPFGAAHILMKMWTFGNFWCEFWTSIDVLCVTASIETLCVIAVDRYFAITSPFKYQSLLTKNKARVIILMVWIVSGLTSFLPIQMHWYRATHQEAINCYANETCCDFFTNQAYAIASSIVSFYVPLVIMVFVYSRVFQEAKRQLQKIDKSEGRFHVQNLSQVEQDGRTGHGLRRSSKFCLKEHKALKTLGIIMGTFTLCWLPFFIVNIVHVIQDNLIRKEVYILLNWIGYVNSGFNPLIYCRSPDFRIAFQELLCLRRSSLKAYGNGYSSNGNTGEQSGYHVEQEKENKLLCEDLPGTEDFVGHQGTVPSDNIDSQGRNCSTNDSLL

Mean delivered dose (% nominal) [1]	×50 [2]	×90 [2]	Physical form after dispersion in PFOB ([3]; suspended in perfluorooctyl bromide, XRPD)	Compound	Physical stability of the salt form in water [3]	Physical stability of the salt form in water ([3]; listed as Indacaterol acetate)	Duration of action (β2-adrenoceptor)	Onset of action (β2-adrenoceptor)
83.5 % nominal	1.63 μm	3.08 μm	salt form of the drug is maintained	CC(=O)O.CCc1cc2c(cc1CC)CC(NC[C@H](O)c1ccc(O)c3[nH]c(=O)ccc13)C2 [indacaterol acetate, (R)-5-[2-(5,6-diethyl-indan-2-ylamino)-1-hydroxyethyl]-8-hydroxy-1H-quinolin-2-one acetate]	rapidly disproportionates to form indacaterol free base and acetic acid	rapidly disproportionating to form indacaterol free base and acetic acid	–	–
–	–	–	–	CCc1cc2c(cc1CC)CC(NC[C@H](O)c1ccc(O)c3[nH]c(=O)ccc13)C2 [indacaterol, (R)-5-[2-(5,6-diethyl-indan-2-ylamino)-1-hydroxyethyl]-8-hydroxy-1H-quinolin-2-one]	–	–	over 24 hours	about 10 minutes
84.8 % nominal	1.22 μm	2.45 μm	–	C[C@@H]1C[C@H]2[C@@H]3CCC4=CC(=O)C=C[C@]4(C)[C@@]3(Cl)[C@@H](O)C[C@]2(C)[C@@]1(OC(=O)c1ccco1)C(=O)CCl [mometasone furoate, (11β,16α)-9,21-dichloro-17-[(2-furanylcarbonyl)oxy]-11-hydroxy-16-methylpregna-1,4-diene-3,20-dione]	–	–	–	–

Compound	Mean delivered dose (% nominal) [1]	×50 [2]	×90 [2]	Physical form after dispersion in PFOB ([3]; suspended in perfluorooctyl bromide, XRPD)	Physical stability of the salt form in water [3]	Physical stability of the salt form in water ([3]; listed as Indacaterol acetate)	Duration of action (β2-adrenoceptor)	Onset of action (β2-adrenoceptor)
C[N+]1(C)CCC(OC(=O)C(O)(c2ccccc2)C2CCCC2)C1.[Br-] (centres unmarked) [Glycopyrronium bromide, 3-[(cyclopentyl-hydroxyphenyl-acetyl)oxy]-1,1-dimethylpyrrolidinium bromide]	82.1 % nominal	2.96 μm	6.52 μm	–	–	–	–	–
